Measurements published in PMC7690782, “Liver-Targeting Class I Selective Histone Deacetylase Inhibitors Potently Suppress Hepatocellular Tumor Growth as Standalone Agents” (Cancers, 2020).

Assays:
Assay in all cases: Fluor de Lys fluorescence deacetylase inhibition assay
Type in all cases: biochemical
Conditions in all cases: read-out: 1 (IC50)
[1] = molecular target: T1, HDAC8 (Homo sapiens, UniProt Q9BY41)
T1 construct: enzyme of BPS Bioscience contract assay
T1 sequence (Q9BY41 1-377): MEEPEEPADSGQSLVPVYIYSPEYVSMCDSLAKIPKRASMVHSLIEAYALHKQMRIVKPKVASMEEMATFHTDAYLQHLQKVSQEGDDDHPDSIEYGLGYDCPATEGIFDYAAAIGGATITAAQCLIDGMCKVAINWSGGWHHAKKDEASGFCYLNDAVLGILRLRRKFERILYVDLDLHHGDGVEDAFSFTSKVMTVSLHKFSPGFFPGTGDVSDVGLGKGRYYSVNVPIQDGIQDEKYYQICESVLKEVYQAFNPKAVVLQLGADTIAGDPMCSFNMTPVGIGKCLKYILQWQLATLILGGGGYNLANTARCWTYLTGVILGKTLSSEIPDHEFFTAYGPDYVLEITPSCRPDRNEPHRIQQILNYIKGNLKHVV
Text: Fluor de Lys fluorescence deacetylase inhibition assay on HDAC8

[2] = molecular target: T2, HDAC4 (Homo sapiens, UniProt P56524)
T2 construct: enzyme of BPS Bioscience contract assay
Text: Fluor de Lys fluorescence deacetylase inhibition assay on HDAC4

[3] = molecular target: T3, HDAC2 (Homo sapiens, UniProt Q92769)
T3 construct: enzyme of BPS Bioscience contract assay
Text: Fluor de Lys fluorescence deacetylase inhibition assay on HDAC2

[4] = molecular target: T4, HDAC10 (Homo sapiens, UniProt Q969S8)
T4 construct: enzyme of BPS Bioscience contract assay
T4 sequence (Q969S8 1-669): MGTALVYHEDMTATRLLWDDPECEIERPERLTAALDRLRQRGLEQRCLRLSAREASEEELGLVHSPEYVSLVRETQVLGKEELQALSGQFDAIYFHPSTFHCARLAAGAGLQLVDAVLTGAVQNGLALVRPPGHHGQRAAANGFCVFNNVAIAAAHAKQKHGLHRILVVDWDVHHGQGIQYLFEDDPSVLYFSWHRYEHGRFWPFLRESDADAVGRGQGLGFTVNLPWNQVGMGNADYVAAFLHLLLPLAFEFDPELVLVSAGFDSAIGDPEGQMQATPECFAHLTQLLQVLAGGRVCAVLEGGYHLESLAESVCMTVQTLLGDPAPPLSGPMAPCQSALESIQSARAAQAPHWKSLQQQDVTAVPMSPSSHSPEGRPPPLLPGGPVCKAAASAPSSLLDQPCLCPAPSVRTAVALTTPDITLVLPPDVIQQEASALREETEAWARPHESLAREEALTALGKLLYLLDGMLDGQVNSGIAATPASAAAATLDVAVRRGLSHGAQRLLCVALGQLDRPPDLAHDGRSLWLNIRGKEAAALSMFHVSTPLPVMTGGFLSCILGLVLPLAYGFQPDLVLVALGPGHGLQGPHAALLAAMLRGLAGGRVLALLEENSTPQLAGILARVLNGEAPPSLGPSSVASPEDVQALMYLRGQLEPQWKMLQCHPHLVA
Text: Fluor de Lys fluorescence deacetylase inhibition assay on HDAC10

[5] = molecular target: T5, HDAC6 (Homo sapiens, UniProt Q9UBN7)
T5 construct: enzyme of BPS Bioscience contract assay
T5 sequence (Q9UBN7 1-1215): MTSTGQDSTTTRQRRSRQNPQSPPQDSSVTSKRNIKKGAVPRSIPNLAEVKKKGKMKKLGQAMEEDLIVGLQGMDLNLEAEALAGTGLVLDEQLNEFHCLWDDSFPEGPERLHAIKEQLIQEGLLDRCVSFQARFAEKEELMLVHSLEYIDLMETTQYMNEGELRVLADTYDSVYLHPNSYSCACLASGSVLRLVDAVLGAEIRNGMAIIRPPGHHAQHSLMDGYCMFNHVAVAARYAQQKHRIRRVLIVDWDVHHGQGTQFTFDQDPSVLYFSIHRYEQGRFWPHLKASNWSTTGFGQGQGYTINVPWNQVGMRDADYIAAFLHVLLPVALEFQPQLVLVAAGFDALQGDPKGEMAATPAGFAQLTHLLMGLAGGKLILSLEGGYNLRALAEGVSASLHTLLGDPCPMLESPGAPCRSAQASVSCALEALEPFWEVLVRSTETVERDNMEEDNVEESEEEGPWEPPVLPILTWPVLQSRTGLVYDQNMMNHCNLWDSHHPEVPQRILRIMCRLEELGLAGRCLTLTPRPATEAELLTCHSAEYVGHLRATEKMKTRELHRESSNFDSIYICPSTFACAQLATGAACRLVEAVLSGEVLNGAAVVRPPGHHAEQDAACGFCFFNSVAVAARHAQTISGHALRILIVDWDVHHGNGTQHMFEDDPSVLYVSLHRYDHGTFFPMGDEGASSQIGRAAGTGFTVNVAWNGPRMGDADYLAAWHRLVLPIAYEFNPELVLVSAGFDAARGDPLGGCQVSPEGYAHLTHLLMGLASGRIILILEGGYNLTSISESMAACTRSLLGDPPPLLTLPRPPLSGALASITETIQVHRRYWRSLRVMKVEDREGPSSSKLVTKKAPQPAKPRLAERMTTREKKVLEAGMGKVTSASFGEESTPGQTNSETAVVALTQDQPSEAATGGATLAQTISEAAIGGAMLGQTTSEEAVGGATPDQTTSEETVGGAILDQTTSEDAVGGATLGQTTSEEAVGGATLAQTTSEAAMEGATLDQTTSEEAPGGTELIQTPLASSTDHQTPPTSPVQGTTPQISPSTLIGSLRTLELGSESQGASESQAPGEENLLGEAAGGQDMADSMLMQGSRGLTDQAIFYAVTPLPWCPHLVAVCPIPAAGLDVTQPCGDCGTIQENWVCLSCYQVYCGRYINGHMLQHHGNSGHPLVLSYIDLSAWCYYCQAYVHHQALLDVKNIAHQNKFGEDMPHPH
Text: Fluor de Lys fluorescence deacetylase inhibition assay on HDAC6

[6] = molecular target: T6, HDAC5 (Homo sapiens, UniProt Q9UQL6)
T6 construct: enzyme of BPS Bioscience contract assay
Text: Fluor de Lys fluorescence deacetylase inhibition assay on HDAC5

[7] = molecular target: T7, HDAC9 (Homo sapiens, UniProt Q9UKV0)
T7 construct: enzyme of BPS Bioscience contract assay
Text: Fluor de Lys fluorescence deacetylase inhibition assay on HDAC9

[8] = molecular target: T8, HDAC7 (Homo sapiens, UniProt Q8WUI4)
T8 construct: enzyme of BPS Bioscience contract assay
T8 sequence (Q8WUI4 518-952 limits assumed): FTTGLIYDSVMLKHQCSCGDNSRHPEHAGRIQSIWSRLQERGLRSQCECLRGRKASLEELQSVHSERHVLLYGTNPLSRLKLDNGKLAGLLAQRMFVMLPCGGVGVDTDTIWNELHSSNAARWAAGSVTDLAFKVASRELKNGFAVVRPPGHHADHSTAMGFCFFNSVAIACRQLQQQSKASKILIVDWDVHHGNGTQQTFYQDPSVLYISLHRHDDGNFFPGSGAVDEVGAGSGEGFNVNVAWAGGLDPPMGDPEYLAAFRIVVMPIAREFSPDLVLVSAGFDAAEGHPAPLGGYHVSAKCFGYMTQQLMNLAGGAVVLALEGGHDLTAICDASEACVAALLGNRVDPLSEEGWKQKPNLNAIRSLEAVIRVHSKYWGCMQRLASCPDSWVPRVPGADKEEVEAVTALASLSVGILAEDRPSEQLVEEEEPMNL
Text: Fluor de Lys fluorescence deacetylase inhibition assay on HDAC7

[9] = molecular target: T9, HDAC1 (Homo sapiens, UniProt Q13547)
T9 construct: enzyme of BPS Bioscience contract assay
Text: Fluor de Lys fluorescence deacetylase inhibition assay on HDAC1

[10] = molecular target: T10, HDAC11 (Homo sapiens, UniProt Q96DB2)
T10 construct: enzyme of BPS Bioscience contract assay
T10 sequence (Q96DB2 1-347): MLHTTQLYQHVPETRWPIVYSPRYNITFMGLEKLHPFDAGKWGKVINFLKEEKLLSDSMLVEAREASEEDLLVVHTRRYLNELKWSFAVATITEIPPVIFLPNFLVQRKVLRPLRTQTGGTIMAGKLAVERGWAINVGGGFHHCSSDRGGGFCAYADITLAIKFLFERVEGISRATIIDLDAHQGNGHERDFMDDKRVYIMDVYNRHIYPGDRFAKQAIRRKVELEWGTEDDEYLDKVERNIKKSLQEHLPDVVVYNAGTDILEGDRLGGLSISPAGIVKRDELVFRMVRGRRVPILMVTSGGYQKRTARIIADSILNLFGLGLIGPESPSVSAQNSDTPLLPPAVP
Text: Fluor de Lys fluorescence deacetylase inhibition assay on HDAC11

T6 sequence (Q9UQL6 whole entry): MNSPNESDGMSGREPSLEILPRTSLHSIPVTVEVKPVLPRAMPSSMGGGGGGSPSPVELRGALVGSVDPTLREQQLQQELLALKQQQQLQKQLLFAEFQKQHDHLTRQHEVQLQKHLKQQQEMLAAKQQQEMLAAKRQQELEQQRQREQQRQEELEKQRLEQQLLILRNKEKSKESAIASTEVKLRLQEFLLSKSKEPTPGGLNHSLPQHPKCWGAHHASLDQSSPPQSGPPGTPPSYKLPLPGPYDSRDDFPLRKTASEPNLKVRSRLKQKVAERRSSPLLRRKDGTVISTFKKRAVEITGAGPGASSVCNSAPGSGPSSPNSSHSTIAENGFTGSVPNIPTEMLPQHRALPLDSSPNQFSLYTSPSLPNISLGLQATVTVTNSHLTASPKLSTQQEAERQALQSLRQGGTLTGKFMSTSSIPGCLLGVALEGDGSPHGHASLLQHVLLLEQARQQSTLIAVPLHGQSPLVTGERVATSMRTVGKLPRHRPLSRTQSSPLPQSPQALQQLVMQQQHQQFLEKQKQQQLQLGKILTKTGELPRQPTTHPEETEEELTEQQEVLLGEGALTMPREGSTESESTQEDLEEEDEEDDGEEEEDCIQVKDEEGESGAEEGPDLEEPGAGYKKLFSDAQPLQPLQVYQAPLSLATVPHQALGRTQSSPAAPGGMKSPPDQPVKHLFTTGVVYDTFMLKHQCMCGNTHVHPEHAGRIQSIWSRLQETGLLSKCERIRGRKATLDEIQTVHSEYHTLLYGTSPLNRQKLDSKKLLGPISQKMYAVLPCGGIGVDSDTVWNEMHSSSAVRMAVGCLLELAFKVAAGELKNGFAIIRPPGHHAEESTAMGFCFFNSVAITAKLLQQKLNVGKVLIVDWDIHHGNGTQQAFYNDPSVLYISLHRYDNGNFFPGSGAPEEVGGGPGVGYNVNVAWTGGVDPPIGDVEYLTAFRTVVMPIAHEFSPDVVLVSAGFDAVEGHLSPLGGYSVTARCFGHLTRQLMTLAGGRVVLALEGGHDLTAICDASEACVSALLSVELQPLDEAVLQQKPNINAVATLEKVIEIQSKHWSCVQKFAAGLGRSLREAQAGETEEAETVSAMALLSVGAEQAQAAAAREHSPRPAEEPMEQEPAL
T7 sequence (Q9UKV0 whole entry): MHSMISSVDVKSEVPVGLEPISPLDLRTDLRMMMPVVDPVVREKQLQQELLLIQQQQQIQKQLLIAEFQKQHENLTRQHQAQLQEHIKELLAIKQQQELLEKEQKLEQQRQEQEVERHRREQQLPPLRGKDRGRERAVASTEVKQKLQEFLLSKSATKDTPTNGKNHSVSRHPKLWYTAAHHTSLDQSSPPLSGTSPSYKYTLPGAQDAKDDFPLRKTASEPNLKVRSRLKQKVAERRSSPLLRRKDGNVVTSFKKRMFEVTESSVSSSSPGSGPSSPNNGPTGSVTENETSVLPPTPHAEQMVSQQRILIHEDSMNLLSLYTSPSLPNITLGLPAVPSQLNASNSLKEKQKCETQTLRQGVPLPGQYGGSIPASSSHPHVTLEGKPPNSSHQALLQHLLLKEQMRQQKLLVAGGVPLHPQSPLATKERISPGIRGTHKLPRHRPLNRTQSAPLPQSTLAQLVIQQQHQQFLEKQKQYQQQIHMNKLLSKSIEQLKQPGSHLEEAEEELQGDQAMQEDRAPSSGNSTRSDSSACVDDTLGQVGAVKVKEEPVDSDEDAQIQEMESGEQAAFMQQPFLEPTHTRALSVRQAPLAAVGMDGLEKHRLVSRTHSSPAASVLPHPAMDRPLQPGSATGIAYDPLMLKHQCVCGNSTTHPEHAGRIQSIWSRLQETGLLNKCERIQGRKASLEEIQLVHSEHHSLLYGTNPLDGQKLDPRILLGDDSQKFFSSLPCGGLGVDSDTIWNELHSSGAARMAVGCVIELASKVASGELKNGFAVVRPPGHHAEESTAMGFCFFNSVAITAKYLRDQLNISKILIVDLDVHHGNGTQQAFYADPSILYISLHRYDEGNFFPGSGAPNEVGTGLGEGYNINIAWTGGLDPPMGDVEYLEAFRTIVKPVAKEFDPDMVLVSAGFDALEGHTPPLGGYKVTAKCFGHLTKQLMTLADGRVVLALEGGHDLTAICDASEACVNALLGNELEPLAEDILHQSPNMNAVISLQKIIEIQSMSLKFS
T2 sequence (P56524 627-1084 limits assumed): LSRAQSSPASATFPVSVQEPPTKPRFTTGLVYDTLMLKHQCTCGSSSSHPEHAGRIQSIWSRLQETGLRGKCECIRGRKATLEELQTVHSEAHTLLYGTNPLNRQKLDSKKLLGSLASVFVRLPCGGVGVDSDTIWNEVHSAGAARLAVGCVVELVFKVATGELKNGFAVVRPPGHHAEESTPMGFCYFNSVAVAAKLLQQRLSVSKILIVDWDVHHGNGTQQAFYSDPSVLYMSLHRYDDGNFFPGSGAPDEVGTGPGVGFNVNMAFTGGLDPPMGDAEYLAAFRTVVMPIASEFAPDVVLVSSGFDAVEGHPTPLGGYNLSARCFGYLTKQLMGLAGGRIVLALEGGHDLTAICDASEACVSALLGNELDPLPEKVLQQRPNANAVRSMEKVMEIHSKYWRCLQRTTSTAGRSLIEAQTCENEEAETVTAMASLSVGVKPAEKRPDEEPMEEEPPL
T3 sequence (Q92769 whole entry): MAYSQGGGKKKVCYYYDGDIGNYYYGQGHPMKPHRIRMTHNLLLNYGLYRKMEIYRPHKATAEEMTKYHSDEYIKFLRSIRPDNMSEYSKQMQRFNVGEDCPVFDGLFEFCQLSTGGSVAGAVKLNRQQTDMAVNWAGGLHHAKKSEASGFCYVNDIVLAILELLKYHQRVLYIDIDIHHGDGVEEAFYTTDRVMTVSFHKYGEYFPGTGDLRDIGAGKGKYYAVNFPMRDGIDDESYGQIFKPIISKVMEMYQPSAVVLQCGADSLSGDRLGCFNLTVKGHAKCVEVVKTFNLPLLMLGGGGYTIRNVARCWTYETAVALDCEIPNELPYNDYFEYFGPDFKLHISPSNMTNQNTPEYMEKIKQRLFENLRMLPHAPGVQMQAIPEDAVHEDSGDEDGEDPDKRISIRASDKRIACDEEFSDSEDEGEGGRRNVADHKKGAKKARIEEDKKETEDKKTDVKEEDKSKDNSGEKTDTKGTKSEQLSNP
T9 sequence (Q13547 whole entry): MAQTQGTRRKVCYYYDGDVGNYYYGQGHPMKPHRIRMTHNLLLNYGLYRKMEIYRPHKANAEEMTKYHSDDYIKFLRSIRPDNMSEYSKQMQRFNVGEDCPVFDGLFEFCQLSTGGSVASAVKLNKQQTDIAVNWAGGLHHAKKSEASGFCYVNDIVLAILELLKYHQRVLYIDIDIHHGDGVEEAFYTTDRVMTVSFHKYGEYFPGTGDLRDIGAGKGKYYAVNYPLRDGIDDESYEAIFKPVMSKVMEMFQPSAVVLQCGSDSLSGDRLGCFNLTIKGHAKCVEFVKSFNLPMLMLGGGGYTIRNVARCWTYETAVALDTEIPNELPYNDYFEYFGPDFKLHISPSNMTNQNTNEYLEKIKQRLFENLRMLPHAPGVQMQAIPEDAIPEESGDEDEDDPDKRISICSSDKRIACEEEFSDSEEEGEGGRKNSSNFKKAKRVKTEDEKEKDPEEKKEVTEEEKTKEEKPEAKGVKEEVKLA

IC50 [1]: 0.839 µM
IC50 [2]: 1.9 µM
IC50 [3]: 0.0081 µM
IC50 [4]: 0.0045 µM
IC50 [5]: 0.0017 µM
IC50 [6]: 1.77 µM
IC50 [7]: 6.91 µM
IC50 [8]: 2.62 µM
IC50 [9]: 0.0027 µM
IC50 [10]: 7.36 µM
Structure (SMILES): CC[C@H]1OC(=O)[C@H](C)[C@@H](O[C@H]2C[C@@](C)(OC)[C@@H](O)[C@H](C)O2)[C@H](C)[C@@H](O[C@@H]2O[C@H](C)C[C@H](N(C)Cc3ccc(-c4cn(CCCCCCC(=O)NO)nn4)cc3)[C@H]2O)[C@](C)(O)C[C@@H](C)CN(C)[C@H](C)[C@@H](O)[C@]1(C)O [compound 1]
